Measurements: US7686975B2, “Use of acylcyclohexanedione derivatives for improving the tolerance of plants to cold and/or frost” (BASF Aktiengesellschaft, priority 2003, dated 2010)

What was measured:
Format in all cases: in vivo
[1] = test system: apple flowers; assay: Frost damage on apple flowers, simulated frost event
Source text: To study the effect of compounds I used in accordance with the invention, flower buds or flowers of various apple varieties were sprayed to run-off point at different stages and different points in time with prohexadione-calcium in the form of the commercial preparation Regalis® from BASF AG in the form of 10% strength granules with 250 ppm of active substance or with a mixture of vitamin E and glycerol (see treatments a) to d)) and subjected to a naturally occurring or simulated frost event during mid-bloom. The treated flowering branches and untreated flowering branches which had been subjected to the same frost event and which acted as control, were subsequently transferred for 2 to 4 days into a greenhouse with temperatures ranging from 15 to 25° C., and the floral injury was assessed. Apple branches with flower buds or flowers (R. Cox) were treated as specified under a.1), b.1), c.1) or d.1) and subsequently subjected to a simulated frost event. Nine days (a.1)) or one day (b.1)-d.1)) after the treatment, the treated flowering branches and untreated control branches were cut off and subjected to a simulated frost event. The temperature program of the simulated frost event was as follows: • chilling from 12° C. to 4° C. within 30 minutes • one hour at 4° C. • chilling from 4° C. to 2° C. within 15 minutes • 75 minutes at 2° C. • chilling from 2° C. to −3° C. within 30 minutes • 150 minutes at −3° C. Two days after the frost event, the floral damage was assessed by examining the individual flowers. At the time of evaluation, the flowers were in the floral stage BBCH 54-56 (BBCH=Biologische Bundesanstalt für Land- und Forstwirtschaft, Bundessortenamt und Chemische Industrie [Federal Biological Institute for Agriculture and Forestry, Federal Office for Crop Plant Varieties, Chemical Industry]). Those flowers whose ovary is brownish in color are considered as damaged (destroyed). The data which represent the percentage of damaged flowers correspond to the mean±standard deviation. A statistically significant difference (critical difference: 5%) between the means of the various measurement series is identified by different letters. Apple branches with flower buds or flowers (R. Cox) were treated analogously to Example 1.1.1, but remained for 210 minutes in the frost chamber at −3° C. Apple branches with flower buds or flowers (Jonagold) were treated analogously to Example 1.1.1. They remained for 150 minutes in the frost chamber at −3° C. At the time of evaluation, the flowers were in floral stage BBCH 56-57. Apple branches with flower buds or flowers (Jonagold) were treated analogously to Example 1.1.3, but remained for 210 minutes in the frost chamber at −3° C. Apple branches with flower buds or flowers (Gala) were treated as described under a.2), b.2), c.2) or d.2) and subsequently subjected to a simulated frost event. 11 days (a.2)) or two days (b.2)-d.2)) after the treatment, the treated flowering branches and untreated control branches were cut off and subjected to a simulated frost event. The temperature program of the simulated frost event corresponded to the one in Example 1.1.1. Four days after the frost event, the floral damage was assessed by examining the individual flowers. At the time of evaluation, the flowers were in floral stage BBCH 57-59. Apple branches with flower buds or flowers (Boskoop) were treated analogously to Example 1.1.5. At the time of evaluation, the flowers were in floral stage BBCH 59-61. They remained at −3° C. for 150 minutes.

[2] = test system: apple seedlings; assay: Photochemical efficacy of electron transport (Fv/Fm, PAM fluorometer) in apple seedlings after simulated frost event; settings: Golden Delicious seedlings
Protocol: Intact photosynthesis in leaves and other green plant tissues is of utmost importance for frost resistance and the intensity of the subsequent regeneration processes. To study the effect of compounds I which were used in accordance with the invention, the photosynthesis rate of treated (a.5) to (e.5)) and untreated apple seedlings which had been subjected to a simulated frost event was determined.
The material used for the experiments was apple seedlings which had been grown from seeds of Golden Delicious apples following cold stratification under controlled-environment cabinet conditions (temperature approx. 20° C.; relative atmospheric humidity approx. […]; day:night=10.5:13.5 hours; light intensity approx. 200 μmol m^−2 s^−1) and which had three to four fully formed leaves at the point in time of treatment. Batches of 10 plants per combination were treated as follows:
To simulate the frost event, the plants were subjected to the following chill program: • removal from the controlled-environment cabinet (20° C.) • transfer into the chill cell to randomized positions at a height of approximately 40 cm for approx. 6 hours at 12° C. • 2 hours at 4° C. • 1.5 hours at 2° C. • 1 hour at 0° C. • 3.5 hours at −3° C. • controlled-environment cabinet (20° C.)
The photosynthesis rate of the stressed apple seedlings was subsequently determined with the aid of a pulse amplitude modulation fluorometer (PAM 2000, Heinz Walz GmbH, Effeltrich). The quotient Fv/Fm, which is determined, describes the amount of light energy captured by the photosynthesis apparatus of the plants which can be exploited for the production of assimilates. Fv represents the variable fluorescence, which corresponds to the difference between F0 (basal fluorescence, which is measured when a dark-adapted leaf is irradiated with fluorescence-exciting light) and Fm (maximum fluorescence of a dark-adapted leaf) (Fv/Fm=(Fm−F0)/Fm).

[3] = test system: apple flowers; assay: Frost damage on apple flowers, naturally occurring frost event
Source text: To study the effect of compounds I used in accordance with the invention, flower buds or flowers of various apple varieties were sprayed to run-off point at different stages and different points in time with prohexadione-calcium in the form of the commercial preparation Regalis® from BASF AG in the form of 10% strength granules with 250 ppm of active substance or with a mixture of vitamin E and glycerol (see treatments a) to d)) and subjected to a naturally occurring or simulated frost event during mid-bloom. The treated flowering branches and untreated flowering branches which had been subjected to the same frost event and which acted as control, were subsequently transferred for 2 to 4 days into a greenhouse with temperatures ranging from 15 to 25° C., and the floral injury was assessed. Apple branches with flower buds or flowers (R. Cox) were treated as described under a.3), b.3), c.3) or d.3) and subsequently subjected to a naturally occurring frost event. The frost period lasted 5 days. The lowest temperature was reached on day two of the frost event and was −4° C. One day after the frost event, the treated flowering branches and untreated control branches were cut off. One day after the branches had been cut off, the floral damage was assessed by examining the individual flowers. At the time of evaluation, the flowers were in floral stage BBCH 56-57. Apple branches with flower buds or flowers (Jonagold) were treated analogously to Example 1.2.1 and exposed to the same frost event. At the time of evaluation, the flowers were in floral stage BBCH 57-59. Apple branches with flower buds or flowers (Boskoop) were treated as described under a.4), b.4), c.4) or d.4) and subsequently subjected to a naturally occurring frost event. The frost period lasted for one day. The lowest temperature was −1.2° C. Two days after the frost event, the treated flowering branches and untreated control branches were cut off, and one day after the branches had been cut off, the floral damage was assessed by examining the individual flowers. At the time of evaluation, the flowers were in floral stage BBCH 57-61.

## CCC(=O)C1=C([O-])CC(C(=O)[O-])CC1=O.[Ca+2] (centres unmarked) [prohexadione-calcium]
[1]; Boskoop, buds sprayed eleven days prior to simulated frost, prohexadione-calcium 250 ppm, 150 minutes at −3° C., mean±SD
  Percentage of damage to flowers: significantly fewer
[1]; Boskoop; buds sprayed eleven days prior to simulated frost; prohexadione-calcium 250 ppm; 150 minutes at −3° C.; mean±SD; listed as a.2)
  Percentage of damage to flowers: 33.6 ± 4.1%
[1]; Boskoop, flowers (mid-bloom) sprayed two days prior to simulated frost, prohexadione-calcium 250 ppm, 150 minutes at −3° C., mean±SD
  Percentage of damage to flowers: significantly fewer
[1]; Boskoop, flowers (mid-bloom) sprayed two days prior to simulated frost; prohexadione-calcium 250 ppm; 150 minutes at −3° C.; mean±SD; listed as b.2)
  Percentage of damage to flowers: 36.8 ± 4.2%
[1]; Gala, buds sprayed eleven days prior to simulated frost, prohexadione-calcium 250 ppm, 150 minutes at −3° C., assessed four days after frost, mean±SD
  Percentage of damage to flowers: tends to reduce the damage
[1]; Gala; buds sprayed eleven days prior to simulated frost; prohexadione-calcium 250 ppm; 150 minutes at −3° C.; assessed four days after frost; mean±SD; listed as a.2)
  Percentage of damage to flowers: 5.2 ± 1.8%
[1]; Gala, flowers (mid-bloom) sprayed two days prior to simulated frost, prohexadione-calcium 250 ppm, 150 minutes at −3° C., assessed four days after frost, mean±SD
  Percentage of damage to flowers: 8.8 ± 2.5%
[1]; Jonagold, buds sprayed nine days prior to simulated frost, prohexadione-calcium 250 ppm, 150 minutes at −3° C., mean±SD
  Percentage of damage to flowers: significantly fewer
[1]; Jonagold; buds sprayed nine days prior to simulated frost; prohexadione-calcium 250 ppm; 150 minutes at −3° C.; mean±SD; listed as a.1)
  Percentage of damage to flowers: 54.4 ± 3.2%
[1]; Jonagold, buds sprayed nine days prior to simulated frost, prohexadione-calcium 250 ppm, 210 minutes at −3° C., mean±SD
  Percentage of damage to flowers: significantly less damage
[1]; Jonagold; buds sprayed nine days prior to simulated frost; prohexadione-calcium 250 ppm; 210 minutes at −3° C.; mean±SD; listed as a.1)
  Percentage of damage to flowers: 43.8 ± 4.2%
[1]; Jonagold, flowers (mid-bloom) sprayed one day prior to simulated frost, prohexadione-calcium 250 ppm, 150 minutes at −3° C., mean±SD
  Percentage of damage to flowers: 69.0 ± 2.9%
[1]; Jonagold, flowers (mid-bloom) sprayed one day prior to simulated frost, prohexadione-calcium 250 ppm, 210 minutes at −3° C., mean±SD
  Percentage of damage to flowers: significantly less damage
[1]; Jonagold, flowers (mid-bloom) sprayed one day prior to simulated frost; prohexadione-calcium 250 ppm; 210 minutes at −3° C.; mean±SD; listed as b.1)
  Percentage of damage to flowers: 66.0 ± 2.7%
[1]; R. Cox, buds sprayed nine days prior to simulated frost, prohexadione-calcium 250 ppm, 210 minutes at −3° C., mean±SD
  Percentage of damage to flowers: significantly fewer
[1]; R. Cox; buds sprayed nine days prior to simulated frost; prohexadione-calcium 250 ppm; 210 minutes at −3° C.; mean±SD; listed as a.1)
  Percentage of damage to flowers: 6.0 ± 1.2%
[1]; R. Cox, buds sprayed to run-off nine days prior to simulated frost, prohexadione-calcium 250 ppm, 150 minutes at −3° C., assessed two days after frost, mean±SD
  Percentage of damage to flowers: significantly fewer
[1]; R. Cox; buds sprayed to run-off nine days prior to simulated frost; prohexadione-calcium 250 ppm; 150 minutes at −3° C.; assessed two days after frost; mean±SD; listed as a.1)
  Percentage of damage to flowers: 15.6 ± 2.5%
[1]; R. Cox, flowers (mid-bloom) sprayed one day prior to simulated frost, prohexadione-calcium 250 ppm, 210 minutes at −3° C., mean±SD
  Percentage of damage to flowers: 33.3 ± 2.6%
[1]; R. Cox, flowers (mid-bloom) sprayed to run-off one day prior to simulated frost, prohexadione-calcium 250 ppm, 150 minutes at −3° C., assessed two days after frost, mean±SD
  Percentage of damage to flowers: 23.1 ± 2.4%
[2]; sprayed 2 days prior to simulated frost (3.5 hours at −3° C.), prohexadione-calcium 50 ppm, 24 hours after frost
  Fv/Fm: survived the frost event virtually undamaged
[2]; sprayed 2 days prior to simulated frost (3.5 hours at −3° C.); prohexadione-calcium 50 ppm; 24 hours after frost; listed as c.5)
  Fv/Fm: 0.804
[2]; sprayed 8 days prior to simulated frost (3.5 hours at −3° C.), 50 ppm prohexadione-calcium, 24 hours after frost
  Fv/Fm: survived the frost event virtually undamaged
[2]; sprayed 8 days prior to simulated frost (3.5 hours at −3° C.); 50 ppm prohexadione-calcium; 24 hours after frost; listed as b.5)
  Fv/Fm: 0.809
[2]; sprayed 21 days prior to simulated frost (3.5 hours at −3° C.), 50 ppm prohexadione-calcium, 24 hours after frost
  Fv/Fm: survived the frost event virtually undamaged
[2]; sprayed 21 days prior to simulated frost (3.5 hours at −3° C.); 50 ppm prohexadione-calcium; 24 hours after frost; listed as a.5)
  Fv/Fm: 0.812
[3]; Boskoop, buds sprayed thirteen days prior to natural frost, prohexadione-calcium 250 ppm, frost one day, lowest −1.2° C., mean±SD
  Percentage of damage to flowers: 84.3 ± 3.3%
[3]; Boskoop, flowers (mid-bloom) sprayed five days prior to natural frost, prohexadione-calcium 250 ppm, frost one day, lowest −1.2° C., mean±SD
  Percentage of damage to flowers: significantly fewer
[3]; Boskoop, flowers (mid-bloom) sprayed five days prior to natural frost; prohexadione-calcium 250 ppm; frost one day, lowest −1.2° C.; mean±SD; listed as b.4)
  Percentage of damage to flowers: 74.7 ± 3.0%
[3]; Jonagold, buds sprayed ten days prior to natural frost, prohexadione-calcium 250 ppm, frost period 5 days, lowest −4° C., mean±SD
  Percentage of damage to flowers: 67.5 ± 2.3%
[3]; Jonagold, flowers (mid-bloom) sprayed two days prior to natural frost, prohexadione-calcium 250 ppm, frost period 5 days, lowest −4° C., mean±SD
  Percentage of damage to flowers: 67.7 ± 2.6%
[3]; R. Cox, buds sprayed ten days prior to natural frost, prohexadione-calcium 250 ppm, frost period 5 days, lowest −4° C., mean±SD
  Percentage of damage to flowers: reduced floral damage
[3]; R. Cox; buds sprayed ten days prior to natural frost; prohexadione-calcium 250 ppm; frost period 5 days, lowest −4° C.; mean±SD; listed as a.3)
  Percentage of damage to flowers: 88.3 ± 1.3%
[3]; R. Cox, flowers (mid-bloom) sprayed two days prior to natural frost, prohexadione-calcium 250 ppm, frost period 5 days, lowest −4° C., mean±SD
  Percentage of damage to flowers: reduced floral damage
[3]; R. Cox, flowers (mid-bloom) sprayed two days prior to natural frost; prohexadione-calcium 250 ppm; frost period 5 days, lowest −4° C.; mean±SD; listed as b.3)
  Percentage of damage to flowers: 76.6 ± 1.7%
